From PubChem BioAssay (NCI)
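Assay format: 96-well plates, 48-hour exposure. TGI marks complete inhibition of growth.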

Tests used:
Assay in all cases: NCI tumour cell line growth inhibition, 48 h
SF-268 CNS = system: SF-268 CNS
NCI-H522 lung = system: NCI-H522 lung
SF-539 CNS = system: SF-539 CNS
M14 melanoma = system: M14 melanoma
TK-10 renal = system: TK-10 renal
LOX IMVI melanoma = system: LOX IMVI melanoma
COLO 205 colon = system: COLO 205 colon
PC-3 prostate = system: PC-3 prostate
MDA-MB-435 = system: MDA-MB-435
SN12C renal = system: SN12C renal

SMILES | TGI (SF-268 CNS) [µM] | TGI (NCI-H522 lung) [µM] | TGI (SF-539 CNS) [µM] | TGI (M14 melanoma) [µM] | TGI (TK-10 renal) [µM] | TGI (LOX IMVI melanoma) [µM] | TGI (COLO 205 colon) [µM] | TGI (PC-3 prostate) [µM] | TGI (MDA-MB-435) [µM] | TGI (SN12C renal) [µM]
COc1ccc(C(SC2C(O)C(CO)OC2n2ccc(=O)[nH]c2=O)(c2ccccc2)c2ccc(OC)cc2)cc1 (configuration not stated) | 40.1 | 31.9 | 39.2 | 25.8 | 57 | 31.5 | 34.9 | 33 | 22.8 | 32.4
CCOC(=O)c1cc(C)nc2c1c(=O)n(-c1ccccc1)c(=O)n2CCCCN1CCN(c2ccccc2)CC1 | > 100 | > 100 | – | > 100 | > 100 | > 100 | > 100 | > 100 | > 100 | > 100
CN(C)CCCNc1ccc2nnn3c4ccc(O)cc4c(=O)c1c23 | 16.3 | 19.8 | 19.6 | 21 | 19.4 | 4.12 | 15.8 | 17.5 | 20.9 | 18.8
Cc1ccc(S(=O)(=O)Nn2c(O)c(C#N)c(-c3ccc(Cl)cc3)c(C#N)c2=O)cc1 | > 100 | > 100 | > 100 | > 100 | > 100 | > 100 | > 100 | > 100 | > 100 | > 100
C=CC[n+]1c2ccccc2n2cc([N+](=O)[O-])ccc21 | – | 41 | > 100 | > 100 | > 100 | > 100 | 26.2 | > 100 | 89.2 | 68.7
CC1(C)CC(=O)C2(CC(CSc3ccccc3)C(CS(=O)(=O)c3ccccc3)C2)C(=O)C1 (configuration not stated) | > 100 | > 100 | > 100 | > 100 | > 100 | > 100 | > 100 | > 100 | > 100 | > 100
O=C(O)COc1cc(-c2ccccc2)nc2cc(F)ccc12 | > 100 | > 100 | > 100 | > 100 | > 100 | > 100 | > 100 | > 100 | > 100 | > 100
O=c1c(-c2ccccc2)c(SCCO)n(-c2ccccc2)c(=S)n1-c1ccccc1 | > 100 | > 100 | – | > 100 | > 100 | > 100 | > 100 | > 100 | > 100 | > 100
O=C1c2c(O)cccc2-c2nn(CCNCCO)c3ccc(NCCNCCO)c1c23 | 1.17 | 0.164 | 1.1 | 2.02 | 7.08 | 1.68 | 1.67 | 2.16 | 1.87 | 0.454
Cc1ccc(S(=O)CC(CF)OCn2cc(C)c(=O)[nH]c2=O)cc1 (configuration not stated) | > 100 | > 100 | > 100 | > 100 | > 100 | > 100 | > 100 | > 100 | > 100 | > 100
COc1cc(C2C(Cl)C(=O)N2c2c(C)n(C)n(-c3ccccc3)c2=O)ccc1O (configuration not stated) | 75.5 | 31 | 39.4 | 30.7 | 63.5 | 32.2 | 34.3 | > 100 | 31.8 | 37.9
O=c1oc(C(C(F)(F)F)C(F)(F)F)nc2ccccc12 | – | > 100 | > 100 | > 100 | > 100 | > 100 | > 100 | > 100 | > 100 | –
Cc1nc(N)c(N2CCN(CN)CC2)c(=O)[nH]1 | > 100 | > 100 | > 100 | > 100 | > 100 | > 100 | > 100 | > 100 | > 100 | > 100
CC(C)(C)CC(C)(C)c1cc(O)c(O)c(CN2CCCCC2)c1 | 25.3 | 23.5 | – | 29 | 29.6 | 24.3 | 25.3 | 26.9 | 37.1 | 30.3
COC[C@@H](N=Cc1ccc([N+](=O)[O-])cc1)C(C)C | > 100 | > 100 | – | > 100 | > 100 | > 100 | – | > 100 | > 100 | > 100
C=C=C(CC(CC(=C)Br)(C(=O)OC)C(=O)OC)S(=O)(=O)c1ccccc1 | 7.45 | 1.76 | 3.33 | 4.3 | 4.8 | 1.7 | 3.26 | 4.31 | 4.17 | 3.13
N#Cc1cc2c(n(C3OC(CO)C(O)C(O)C3O)c1=S)CCCCCC2 (configuration not stated) | > 100 | > 100 | > 100 | > 100 | > 100 | > 100 | > 100 | > 100 | > 100 | > 100
